The assay concerns the target T1, Recombinant human proMMP13 (collagenase 3) (Homo sapiens, UniProt P45452).
T1 construct: made in house
Kind of assay: Collagenase 3 (MMP13) enzyme inhibition assay with fluorogenic peptide substrate. The class given is biochemical. The conditions noted are these: APMA-activated MMP13, 4-5 hours at 35° C., pH 7.5, fluorescence λex 328 nm / λem 393 nm. As to the method: Collagenase 3 (MMP13) inhibitory activity may be assessed, for example, using the procedure set out below:—
Activity is determined by measuring the fluorescence at λex 328 nm and λem 393 nm.
On to `CC[C@]1(CS(=O)(=O)N2CCC(Oc3ccc(OCC(F)(F)F)cc3)CC2)NC(=O)NC1=O` [Example 2, (5S)-5-ethyl-5-[({4-[4-(2,2,2-trifluoroethoxy)phenoxy]piperidin-1-yl}sulfonyl)methyl]imidazolidine-2,4-dione], for which the IC50 (commonly the point on the concentration scale where inhibition reaches its midpoint) came out at 8.4 nM.

Regarding `CCC1(CS(=O)(=O)N2CCC(Oc3ccc(OC(F)(F)C(F)F)cc3)CC2)NC(=O)NC1=O` (stereo not drawn) [Example 4, 5S-ethyl-5-[({4-[4-(1,1,2,2-tetrafluoroethoxy)phenoxy]piperidin-yl}sulfonyl)methyl]imidazolidine-2,4-dione], the IC50 was found to be 4.9 nM.

Consider `CC[C@]1(CS(=O)(=O)N2CCC(Oc3ccc(OC(F)(F)C(F)(F)F)cc3)CC2)NC(=O)NC1=O` [Example 6, (5S)-5-ethyl-5-[({4-[4-(pentafluoroethoxy)phenoxy]piperidin-1-yl}sulfonyl)methyl]imidazolidine-2,4-dione], for which the IC50 turned out to be 13 nM.

Take `CCC1(CS(=O)(=O)N2CCC(Oc3ccc(OCCC(F)(F)F)cc3)CC2)NC(=O)NC1=O` (stereo not drawn) [Example 8]: the IC50 turned out to be 5.5 nM.

With `CC[C@]1(CS(=O)(=O)N2CCC(Oc3ccc(OCC(F)(F)C(F)F)cc3)CC2)NC(=O)NC1=O` [Example 10, (5S)-5-ethyl-5-[({4-[4-(2,2,3,3-tetrafluoropropoxy)phenoxy]-piperidin-1-yl}sulphonyl)methyl]imidazolidine-2,4-dione], the concentration for half-maximal inhibition (IC50) amounted to 0.7 nM.

With `CC[C@]1(CS(=O)(=O)N2CCC(Oc3ccc(OCC(F)(F)C(F)(F)F)cc3)CC2)NC(=O)NC1=O` [Example 12, (5S)-5-ethyl-5-[({4-[4-(2,2,3,3,3-pentafluoropropoxy)phenoxy]-piperidin-1-yl}sulphonyl)methyl]imidazolidine-2,4-dione], the IC50 came out at 1.9 nM.

The record behind these values is US8129412B2, “Hydantoin derivatives useful as metalloproteinase inhibitors” (AstraZeneca AB, priority 2004, dated 2012).
